In patent US8871751B2, “Compositions and methods relating to nuclear hormone and steroid hormone receptors including inhibitors of estrogen receptor alpha-mediated gene expression and inhibition of breast cancer” (The Board of Trustees of the University of Illinois, priority 2008, dated 2014):
“Also recorded” adds a separate entry of the source. Read-outs that look alike come from different tables or passages of the source.

Legend:
ERα [1] = target: T1, ERα (Homo sapiens, UniProt P03372); parameters: Using a stably transfected breast cancer cell line that expresses endogenous ERα; endogenous in cells; host or cells: T47D-KBluc; conditions: T47D cells, conditions identical to TPSF; see Mao C et al., 2008; read-out: IC50 for inhibition of E2-ERα-mediated (ERE)3-luciferase expression; cited from earlier work
T1 sequence (P03372 1-595): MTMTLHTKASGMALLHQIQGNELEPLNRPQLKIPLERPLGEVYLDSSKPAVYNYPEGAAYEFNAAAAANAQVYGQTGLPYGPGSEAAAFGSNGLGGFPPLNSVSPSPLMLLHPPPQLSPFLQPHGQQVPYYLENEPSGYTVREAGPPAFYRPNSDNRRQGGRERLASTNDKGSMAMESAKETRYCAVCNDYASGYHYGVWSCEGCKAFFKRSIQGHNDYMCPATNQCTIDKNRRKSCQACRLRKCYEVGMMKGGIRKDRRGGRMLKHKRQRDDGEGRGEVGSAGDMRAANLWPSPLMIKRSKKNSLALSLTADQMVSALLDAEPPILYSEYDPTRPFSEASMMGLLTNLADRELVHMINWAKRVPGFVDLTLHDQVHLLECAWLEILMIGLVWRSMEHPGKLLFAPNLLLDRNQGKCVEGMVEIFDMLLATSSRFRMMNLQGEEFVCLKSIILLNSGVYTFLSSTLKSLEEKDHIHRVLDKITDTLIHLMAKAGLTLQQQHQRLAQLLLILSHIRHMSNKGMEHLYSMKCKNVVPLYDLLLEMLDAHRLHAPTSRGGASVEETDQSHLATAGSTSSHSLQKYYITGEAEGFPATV

MCF-7 cells = assay: E2-dependent growth of MCF-7 cells (MTS); format: cell-based, human
Protocol: (§1) Assays for Cell Growth and Viability. Cells were maintained in the media listed above containing CD-treated serum for at least 4 days prior to the experiment. To minimize cell aggregation, MCF-7 cells were harvested in 10 mM Hepes, pH 7.4, 1 mM EDTA. Other cell lines were harvested in trypsin-EDTA. 1,000 cells were plated into each well of a 96 well plate. For slow growing ZR-75 cells, 2,000 cells were plated/well. The cells were maintained in medium containing CD-treated serum for 24 hours. At 24 hours the medium was changed and E2 and DMSO vehicle or TPSF in DMSO was added. The medium was replaced after 2 days (except for BT474 cells whose medium was not changed). After 4 days viable cells were determined using a cell viability test, Promega CellTiter 96 Aqueous One Solution Cell Proliferation Assay (MTS) (Promega, Wis.).

MCF7ERαHA cells = assay: Growth of tamoxifen-resistant MCF7ERαHA cells (MTS); format: cell-based, human; conditions: 5 μM, Dox, 1 pM E2, 4 days
Protocol: FIG. 19 illustrates that TPSF, but not OHT, is capable of inhibiting E2-ERα-dependent growth of tamoxifen-resistant breast cancer cells as measured in MCF7ERαHA cells. MCF7ERαHA cells were maintained for 4 days in 6× stripped CD-FBS, seeded into 12 well plates containing or lacking Dox (0.5 μg/ml), E2 (1 pM) OHT (5 μM) and TPSF (5 μM), grown for 4 days and assayed using MTS with a standard curve for cell number. Cells in ethanol and DMSO vehicle alone were set to 100%. Data represents the average of 3 experiments±SEM. The difference between the cells incubated with TPSF+E2+Dox compared to the cells in Dox, and E2 and to the cells in Dox, E2 and OHT was significant (P<0.05 using Student's two-tailed T test).
as §1, with “At 24 hours the medium was changed and E2 and DMSO vehicle or TPSF in DMSO was added. The medium was replaced after 2 days (except for BT474 cells whose medium was not changed).” left out

ZR-75 cells = assay: E2-ERα-dependent growth of ZR-75 cells (MTS); format: cell-based; conditions: Homo sapiens, ZR75, 96 h, 100 pM E2, 4 days, read-out: IC50 for inhibition of E2-ERα-dependent growth of ZR-75 cells
Protocol: FIG. 20 illustrates further activity of TPSF in the inhibition of tamoxifen-resistant human breast cancer cells. The effects of TPSF on the E2-ERα-dependent growth of tamoxifen-resistant BT474 and ZR-75 cells were assessed. […] The cells were maintained in medium containing 10% CD-FBS (ZR-75) or 10% CD-CS (BT474) containing or lacking 100 pM E2 and the indicated concentrations of TPSF. Viable cells were measured by comparison to a standard curve of cell number versus absorbance using the MTS assay. Data represents the average of at least 4 wells. IC50 values for TPSF inhibition of cell growth were calculated by curve-fitting using Sigma Plot.
as §1, with “The medium was replaced after 2 days (except for BT474 cells whose medium was not changed).” left out

ERα [2] = target: T1, ERα; assay: Endogenous PI-9 mRNA induction in MCF-7 cells (qRT-PCR); format: cell-based; parameters: endogenous in cells; conditions: 10 nM E2, read-out: IC50 for inhibition of E2-ERα induction of endogenous PI-9 mRNA (Endog. PI-9)
Protocol: (§2) Endogenous Gene Expression. MCF-7 cells or MCF7ERαHA cells were maintained for 4 days in medium containing 5% CD calf serum (MCF-7 cells) or 10% 6×CD-FBS (MCF7ERαHA cells). In assays of TPSF inhibition of PI-9 induction, cells were plated, incubated for 24 hours in the indicated concentrations of TPSF and then maintained 4 hours with and without E2, with and without TPSF. To induce ERα, MCF7ERαHA cells were also maintained in 0.5 μg/ml Dox for 24 hours prior to addition of E2 or OHT with or without TPSF. For induction of cyclin D1, 24 hours after plating the cells, E2 with and without TPSF was added, the cells were maintained for 24 hours, RNA was extracted and mRNA levels were determined by quantitative RT-PCR as described (19, 26). Actin mRNA levels were used as the qRT-PCR internal standard. The primers and sequences used in qRT-PCR were as follows.

ERα [3] = target: T1, ERα; assay: Estrogen induction of cyclin D1 mRNA in MCF-7 cells; format: cell-based; parameters: endogenous in cells; conditions: 10 μM, 10 nM E2, 24 h
Protocol: FIG. 15 illustrates results of testing for inhibition of the estrogen induction of Cyclin D1 mRNA. MCF-7 cells were plated and 24 h later treated with ethanol vehicle, 10 nM E2, or 10 nM E2 and 10 μM TPSF. Cells were maintained for 24 hours, RNA was extracted and cyclin D1 mRNA levels were measured by qRT-PCR. Cyclin D1 mRNA levels in the vehicle only sample were set to 1. Data is the average±SEM for 3 experiments each assayed in triplicate.
as §2

ERα [4] = target: T1, ERα; assay: (ERE)3-luciferase reporter gene assay in T47D-KBluc cells; format: cell-based; parameters: Using a stably transfected breast cancer cell line that expresses endogenous ERα; endogenous in cells; host or cells: T47D-KBluc

| Compound | IC50 (ERα [1]) | effect on E2-dependent growth of MCF-7 cells (MCF-7 cells; 7.5 μM) | IC50 (MCF-7 cells; Homo sapiens, MCF7, 96 h, 1 pM E2, 4 days, MTS, read-out: IC50 for inhibition of E2-dependent growth of MCF-7 cells) | effect on E2-ERα-dependent growth of MCF7ERαHA cells (MCF7ERαHA cells) | IC50 (ZR-75 cells) | IC50 (ERα [2]) | effect on E2 induction of cyclin D1 mRNA (ERα [3]) | IC50 (ERα [4]; 0.2 nM E2, 24 h, read-out: IC50 for inhibition of E2-ERα-mediated (ERE)3-luciferase expression) | IC50 (ERα [4]; 100 nM E2, 24 h, read-out: IC50 for inhibition of E2-ERα-mediated (ERE)3-luciferase expression (ERE-Luc)) |
| --- | --- | --- | --- | --- | --- | --- | --- | --- | --- |
| Cn1c(=O)c2nc(CSCc3ccccc3)[nH]c2n(C)c1=O [Compound 95910, 8-Benzylsulfanylmethyl-1,3-dimethyl-3,7-dihydro-purine-2,6-dione] | 11000 nM |  |  |  |  |  |  |  |  |
| Cn1c(=S)c2[nH]c(SCCCC(=O)c3ccc(F)cc3)nc2n(C)c1=O [TPSF, Butyrophenone, p-fluoro-4-(1,2,3,6,-tetrahydro-1,3-dimethyl-2-oxo-6-thionopurin-8-ylthio)] |  | completely blocked | 2000 nM | inhibited | 900 nM | 200 nM | completely inhibited; also recorded: abolished | 400 nM | 700 nM |
